# Measured values: patent US20220304950A1, “[…] THE TREATMENT OF PATIENTS WITH MAJOR DEPRESSIVE DISORDER, INCLUDING SUICIDALITY” (JANSSEN PHARMACEUTICALS, INC., priority 2019, published 2022)
# Experiments:
# Assay type in all cases: in vivo, human
# [1] = tested on: adult patients with MDD assessed to be at imminent risk for suicide; experiment: Treatment disposition, Study 1 (Example 4); details: Esk 84 mg + SOC, double-blind phase, all randomized
# Description: A total of 270 subjects were screened across 51 sites in 10 countries throughout the study period. Of those, 226 subjects were randomized to 1 of 2 treatment groups in a 1:1 ratio (114 in esketamine 84 mg+SOC and 112 in placebo+SOC). The randomization was stratified by study center and by the physician's assessment of the participant's need of standard of care antidepressant treatment prior to randomization on Day 1 (i.e., antidepressant monotherapy or antidepressant plus augmentation therapy).
# [2] = tested on: adult patients with MDD assessed to be at imminent risk for suicide; experiment: MADRS total score, Study 2 (Example 5); details: 24 hours post first dose
# From the text: (§1) The primary efficacy evaluation will be the MADRS total score. The MADRS will be performed using the Structured Interview Guide for the Montgomery Asberg Depression Rating Scale. The MADRS is a clinician-rated scale designed to be used in subjects with MDD to measure depression severity and detect changes due to antidepressant treatment. The test consists of 10 items, each of which is scored from 0 (item not present or normal) to 6 (severe or continuous presence of the symptoms), for a total possible score of 60. Higher scores represent a more severe condition. The MADRS evaluates apparent sadness, reported sadness, inner tension, sleep, appetite, concentration, lassitude, interest level, pessimistic thoughts, and suicidal thoughts.
# (§2) The typical recall period for the MADRS is 7 days. In this study, the MADRS will also be administered using a since last assessment recall, a 4-hour recall on Day 1 and Day 25 postdose, and a 24-hour recall on Day 2. For the MADRS performed at 4 hours postdose on Days 1 and 25, the MADRS scores for the sleep item recorded predose on the same day will be carried forward.
# The primary objective is to compare the efficacy of ESK+SOC to that of PBO+SOC in reducing the symptoms of MDD, including suicidal ideation, as measured by the change from baseline on the MADRS total score at 24 hours post-first dose. […]
# Primary efficacy variable/Primary timepoint: Change in MADRS total score from baseline to 24 hours post first dose (Day 2). The MADRS consists of 10 items that cover all of the core depressive symptoms: each item is scored from 0 (symptom is not present or is normal) to 6 (severe or continuous presence of the symptom). A total score (0 to 60) is calculated by summing the scores of all 10 items. […]
# [3] = tested on: adult patients with MDD assessed to be at imminent risk for suicide; experiment: MADRS total score, Study 1 (Example 4); details: for MADRS total score change, Diff. of LS Means (SE) vs placebo + SOC: ANCOVA LOCF; for MADRS total score change, LS mean difference Testing-Reference (MMRM): Esk 84 mg + SOC minus placebo + SOC; for MADRS total score, change from baseline to Day 2 (LOCF), mean (SD): negative = improvement
# From the text: as §1, §2
# The primary efficacy analyses are based on the full efficacy analysis set which is defined as all randomized subjects who received at least 1 dose of double-blind study medication and have both a baseline and a post-baseline evaluation for the Montgomery Xsberg Depression Rating Scale (MADRS) total score or Clinical Global Impression-Severity of Suicidality-Revised (CGI-SS-R).
# MADRS consists of 10 items that cover all of the core depressive symptoms: each item is scored from 0 (symptom is not present or is normal) to 6 (severe or continuous presence of the symptom). A total score (0 to 60) is calculated by summing the scores of all 10 items. A higher score represents a more severe condition.
# [4] = Esk 84 mg + SOC, 24 hours post first dose
# [5] = Esk 84 mg + SOC, 24 hours post first dose, full efficacy analysis set
smiles,measurement,setting,value
"CN[C@]1(c2ccccc2Cl)CCCCC1=O [esketamine, (S)-2-(2-chlorophenyl)-2-(methylamino)cyclohexanone]","Discontinuation due to adverse event, subjects %",[1],4.4%
same,"Discontinuation due to adverse event, subjects n",[1],5
same,Effect size for the primary endpoint (MADRS),[2],0.35
same,"MADRS total score change, least-square mean difference (SE) vs placebo+SOC",[2]; ANCOVA LOCF,−3.9 (1.39)
same,"MADRS total score, change from baseline to Day 2 (LOCF), mean (SD)",[2]; esketamine 84 mg+SOC,−15.7 (11.56)
same,Effect size for the primary endpoint (MADRS),[3]; 24 hours post first dose,0.34
same,"MADRS total score change, Diff. of LS Means (SE) vs placebo + SOC",[3]; 24 hours post first dose,−3.8 (1.39)
same,"MADRS total score change, Diff. of LS Means (SE) vs placebo + SOC","[3]; 24 hours post first dose, listed as Esk",−3.8
same,"MADRS total score, mean change from baseline (SD)",[3]; ESK+SOC,−16.4 (11.95)
same,"MADRS total score change, LS mean difference Testing-Reference (MMRM)",[3]; Day 1 (DB): 4 H,−2.6
same,"MADRS total score change, LS mean difference Testing-Reference (MMRM)",[3]; Day 2 (DB),−3.7
same,"MADRS total score change, LS mean difference Testing-Reference (MMRM)",[3]; Day 4 (DB),−4.6
same,"MADRS total score change, LS mean difference Testing-Reference (MMRM)",[3]; Day 8 (DB),−2.5
same,"MADRS total score change, LS mean difference Testing-Reference (MMRM)",[3]; Day 11 (DB),−2.8
same,"MADRS total score change, LS mean difference Testing-Reference (MMRM)",[3]; Day 15 (DB),−1.5
same,"MADRS total score change, LS mean difference Testing-Reference (MMRM)",[3]; Day 18 (DB),−2.3
same,"MADRS total score change, LS mean difference Testing-Reference (MMRM)",[3]; Day 22 (DB),−3.2
same,"MADRS total score change, LS mean difference Testing-Reference (MMRM)",[3]; Day 25 (DB): 4 H,−4.1
same,"MADRS total score change, LS mean difference Testing-Reference (MMRM)",[3]; Day 25 (DB): predose,−2.6
same,"MADRS total score, change from baseline to Day 2 (LOCF), median",[3]; [4],−15.0
same,"MADRS total score, Day 2 (DB) LOCF, mean",[3]; [5],24.7
same,"MADRS total score, Day 2 (DB) LOCF, median",[3]; [5],26.0
same,"MADRS total score, change from baseline to Day 2 (LOCF), mean (SD)",[3]; [4],−16.4 (11.95)
same,"MADRS total score, change from baseline to Day 2 (LOCF), mean (SD)","[3]; Esk 84 mg + SOC, 24 hours post first dose, listed as Esk",−16.4
same,"MADRS total score change from baseline, LS mean (MMRM observed case)","[3]; Esk 84 mg + SOC, Day 1 (DB): 4 H",−12.8
same,"MADRS total score change from baseline, LS mean (MMRM observed case)","[3]; Esk 84 mg + SOC, Day 2 (DB)",−15.7
same,"MADRS total score change from baseline, LS mean (MMRM observed case)","[3]; Esk 84 mg + SOC, Day 4 (DB)",−18.3
same,"MADRS total score change from baseline, LS mean (MMRM observed case)","[3]; Esk 84 mg + SOC, Day 8 (DB)",−19.0
same,"MADRS total score change from baseline, LS mean (MMRM observed case)","[3]; Esk 84 mg + SOC, Day 11 (DB)",−20.8
same,"MADRS total score change from baseline, LS mean (MMRM observed case)","[3]; Esk 84 mg + SOC, Day 15 (DB)",−21.6
same,"MADRS total score change from baseline, LS mean (MMRM observed case)","[3]; Esk 84 mg + SOC, Day 18 (DB)",−23.1
same,"MADRS total score change from baseline, LS mean (MMRM observed case)","[3]; Esk 84 mg + SOC, Day 22 (DB)",−23.5
same,"MADRS total score change from baseline, LS mean (MMRM observed case)","[3]; Esk 84 mg + SOC, Day 25 (DB): 4 H",−28.8
same,"MADRS total score change from baseline, LS mean (MMRM observed case)","[3]; Esk 84 mg + SOC, Day 25 (DB): predose",−24.3
